In brackets after ≈: the same amount, converted by molar mass.
Key:
[1] = test system: E. faecium ATCC 19434; experiment: microbe, parasite or virus in culture; type: cell-based, Enterococcus faecium; conditions: ATCC 19434, 24 h
[2] = test system: HepG2 cell line ATCC HB-8065; experiment: Effect on HepG2 cell viability (MTT assay); type: cell-based, human; conditions: 48 h
Summary of the method: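 HepG2 cells at 5000/well, pre-cultured 24 h, then exposed 48 h at 37 °C to serial dilutions over 10–1280 μg/mL. Viability was read by MTT (0.2 mg/mL, 3 h, A540 after DMSO solubilization) relative to untreated control, and IC50 was fitted.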

[3] = test system: E. faecalis (MV269); type: cell-based, Enterococcus faecalis; conditions: MV269, 24 h
Procedure: The minimum bactericidal concentration (MBC) is defined as the lowest concentration of the peptidomimetics that kills 99.9% of the bacterial population. All experiments were performed in three biological replicates.

[4] = test system: E. faecium ATCC 19434; experiment: Time-kill kinetics; type: cell-based, Enterococcus faecium; conditions: for Reduction in viable bacteria (time-kill): up to 5 h exposure, BHI broth
Procedure: Time–kill kinetics were established for compounds 2, 5 and 10 in E. faecium ATCC 19434 and E. faecalis ATCC 29212. Prior to the experiments, the isolates were incubated on BHI agar supplemented with 5% calf blood at 37 °C overnight (ON). For each of the strains 1-2 colonies were transferred into 4 mL BHI broth and incubated ON at 37 °C with shaking (180 rpm). OD600 was measured, and then cultures were diluted with BHI broth to an OD600 of 0.05 and grown for approximately 2 h to reach the exponential phase.
One untreated control per strain was prepared. The inoculum was quantified by plating and subsequently enumerated. The initial inocula were approximately 10^7 CFU/mL. Two controls were included, both without bacteria and one including the respective compound without bacteria. All tubes were incubated at 37 °C with shaking (180 rpm). Samples of 100 µL were taken after 1 h, 3 h and 5 h of exposure. Appropriate dilutions were spread onto BHI agar plates and incubated at 37 °C overnight, and then colonies were enumerated. Plates were incubated for 24 h and 48 h, and then checked for the appearance of slow-growing colonies. The experiments were performed with at least three biological replicates for each condition and time point.

[5] = test system: E. faecium (MV388); experiment: Membrane integrity, propidium iodide uptake by flow cytometry; type: cell-based, Enterococcus faecium; conditions: peptidomimetics at MBC, nisin at MIC; 5 min
Procedure: (§1) Membrane integrity was assessed by using a propidium iodide (PI) uptake assay, as previously described. In brief, 2 μL of stationary enterococcal cultures were transferred to Falcon round-bottom tubes (14 mL; Corning), each containing 2 mL fresh BHI medium. Cultures were grown to an OD600 of 0.2 at 37 °C with shaking (180 rpm). […] Then, 15 μL of culture was transferred into 980 μL filtered phosphate-buffered saline, and then stained for 5 min with 5 μL of 0.1 mg/mL PI. After staining, the red fluorescence levels (FL3 channel) in cells were recorded by using a BD Biosciences Accuri C6 flow cytometer (Becton Dickinson). The settings of the flow cytometer were as follows: 25,000 recorded events at an FSC threshold of 15,000, and medium flow rate. The gating of the stained cell population and analysis of flow cytometry data were performed in CFlow (BD Accuri). The assessment of membrane integrity was performed in three biological replicates for each condition.

[6] = test system: E. faecalis (MV269); experiment: as above; type: cell-based, Enterococcus faecalis; conditions: peptidomimetics at MBC, nisin at MIC; 5 min
Procedure: as §1

[7] = test system: enterococci; experiment: Checkerboard assay, overall synergy statements; type: cell-based, Enterococcus faecium and Enterococcus faecalis; conditions: for Resensitization of two vancomycin-resistant E. faecium isolates toward vancomycin / Sensitization of enterococcal isolates to gentamicin: sub-inhibitory concentrations; for Synergy with conventional antibiotics: vancomycin, gentamicin, ciprofloxacin, linezolid, rifampicin or azithromycin, synergy = FICI ≤ 0.5
Procedure: The strain culture preparation and final volume were the same as in the MIC assay. […] The plates were incubated for 24 h at 37 °C without shaking. […] All experiments were performed in two biological replicates.
To evaluate the effect of the combinations, the fractional inhibitory concentration index (FICI) was calculated for each combination according to:ΣFIC = FICA + FICB = (CA/MICA) + (CB/MICB)
The drug interaction was scored as follows: synergy—FICI ≤ 0.5; no interaction—FICI > 0.5–4; antagonism—FICI > 4 [40].

[8] = test system: E. faecalis isolates; type: cell-based, Enterococcus faecalis; conditions: 24 h
Procedure: Overnight cultures of the enterococcal isolates were diluted in physiological saline (0.9% NaCl) to reach a turbidity of 0.5 McFarland units (Sensititre® nephelometer and the Sensititre® McFarland Standard). Bacterial suspensions were adjusted to 5 × 10^5 CFU/mL in MHB II or BHI broth containing two-fold dilutions of peptidomimetics or conventional antibiotics in a final volume of 100 µL. The plates were incubated for 24 h at 37 °C without shaking. […] All experiments were performed in three biological replicates.

| SMILES | Minimum inhibitory concentration [1] [µg/mL] | HepG2 IC50 [2] [µg/mL] | Minimum bactericidal concentration [3] [µg/mL] | Bactericidal or bacteriostatic mode of action ([4]; 8 µg/mL (4× MIC)) | Reduction in viable bacteria (time-kill) ([4]; 4× MIC) | Propidium iodide (PI) uptake, membrane integrity [5] | Propidium iodide (PI) uptake, membrane integrity [6] | Resensitization of two vancomycin-resistant E. faecium isolates toward vancomycin [7] | Sensitization of enterococcal isolates to gentamicin [7] | Synergy with conventional antibiotics [7] | MIC (range) against E. faecalis [8] [µg/mL] | Reduction in viable cell counts within 1 h ([4]; 4× MIC, within 1 h of exposure) |
| --- | --- | --- | --- | --- | --- | --- | --- | --- | --- | --- | --- | --- |
| CC(=O)N[C@@H](CCCCNC(=N)N)C(=O)N(CCC(=O)N[C@@H](CCCCNC(=N)N)C(=O)N(CCC(=O)N[C@@H](CCCCNC(=N)N)C(=O)N(CCC(=O)N[C@@H](CCCCNC(=N)N)C(=O)N(CCC(=O)N[C@@H](CCCCNC(=N)N)C(=O)N(CCC(=O)N[C@@H](CCCCNC(=N)N)C(=O)N(CCC(N)=O)[C@@H](C)C1CCCCC1)[C@@H](C)C1CCCCC1)[C@@H](C)C1CCCCC1)[C@@H](C)C1CCCCC1)[C@@H](C)C1CCCCC1)[C@@H](C)C1CCCCC1 [Compound 2, Ac-[hArg-βNsce]6-NH2] | 2 (≈ 0.922 µM) | 15 | 8 (≈ 3.69 µM) | bactericidal | approximately 3 log | significant accumulation of PI | significant accumulation of PI | this was not the case | did not sensitize | no synergy |  |  |
| CC(=O)N[C@@H](CCCCNC(=N)N)C(=O)N(CCC(=O)N[C@@H](CCCCN)C(=O)N(CCC(=O)N[C@@H](CCCCNC(=N)N)C(=O)N(CCC(=O)N[C@@H](CCCCN)C(=O)N(CCC(=O)N[C@@H](CCCCNC(=N)N)C(=O)N(CCC(=O)N[C@@H](CCCCN)C(=O)N(CCC(N)=O)[C@@H](C)c1ccccc1)[C@@H](C)C1CCCCC1)[C@@H](C)c1ccccc1)[C@@H](C)C1CCCCC1)[C@@H](C)c1ccccc1)[C@@H](C)C1CCCCC1 [Compound 5, Ac-[hArg-βNsce-Lys-βNspe]3-NH2] | 4 (≈ 1.98 µM) | 73 | 16 (≈ 7.91 µM) |  | 1.5 log | less perturbation of membrane integrity | less perturbation of membrane integrity | this was not the case | did not sensitize | no synergy | 4 to 16 | no reduction in viable cell counts |
| CCCCCCCC(=O)N[C@@H](CCCCN)C(=O)N(CCC(=O)N[C@@H](CCCCN)C(=O)N(CCC(=O)N[C@@H](CCCCN)C(=O)N(CCC(=O)N[C@@H](CCCCN)C(=O)N(CCC(=O)N[C@@H](CCCCN)C(=O)N(CCC(=O)N[C@@H](CCCCN)C(=O)N(CCC(N)=O)[C@@H](C)c1ccccc1)[C@@H](C)c1ccccc1)[C@@H](C)c1ccccc1)[C@@H](C)c1ccccc1)[C@@H](C)c1ccccc1)[C@@H](C)c1ccccc1 [Compound 10, Oct-[Lys-βNspe]6-NH2] | 8 (≈ 4.07 µM) | 41 | 32 (≈ 16.3 µM) |  | 4 log | less perturbation of membrane integrity | less perturbation of membrane integrity | this was not the case | did not sensitize | no synergy | 4 to 16 |  |

— paper PMC8197855, “Peptide/β-Peptoid Hybrids with Activity against Vancomycin-Resistant Enterococci: Influence of Hydrophobicity and Structural Features on Antibacterial and Hemolytic Properties” (International Journal of Molecular Sciences, 2021)
